Measured values taken from ChEMBL document CHEMBL4138123, “Design, synthesis and biological evaluation of novel pyrazolochalcones as potential modulators of PI3K/Akt/mTOR pathway and inducers of apoptosis in breast cancer cells” (Eur J Med Chem, 2017).

Key:
Type in all cases: functional
786-0 = test: Cytotoxicity against human 786-0 cells assessed as growth inhibition after 48 hrs by sulforhodamine B assay; conditions: 786-0, 48 h
SN12C [1] = test: Cytotoxicity against human SN12C cells assessed as cell growth at 1 uM after 48 hrs by sulforhodamine B assay relative to control; conditions: read-out: Activity
A549 [2] = test: Cytotoxicity against human A549/ATCC cells assessed as cell growth at 10 uM after 48 hrs by sulforhodamine B assay relative to control; conditions: A549, 48 h, read-out: Activity
HOP-62 = test: Cytotoxicity against human HOP62 cells assessed as growth inhibition after 48 hrs by sulforhodamine B assay; conditions: HOP-62, 48 h
A498 = test: Cytotoxicity against human A498 cells assessed as growth inhibition after 48 hrs by sulforhodamine B assay; conditions: A498, 48 h
NCI-H322M [3] = test: Cytotoxicity against human NCI-H322M cells assessed as growth inhibition after 48 hrs by sulforhodamine B assay; conditions: for CC50: read-out: LC50 (the source's name)
T47D = test: Cytotoxicity against human T47D cells assessed as cell growth at 0.01 uM after 48 hrs by sulforhodamine B assay relative to control; conditions: read-out: Activity
UO-31 [4] = test: Cytotoxicity against human UO31 cells assessed as cell growth at 10 uM after 48 hrs by sulforhodamine B assay relative to control; conditions: UO-31, 48 h, read-out: Activity
NCI-H322M [5] = test: Cytotoxicity against human NCI-H322M cells assessed as cell growth at 0.1 uM after 48 hrs by sulforhodamine B assay relative to control; conditions: read-out: Activity
OVCAR-8 [6] = test: Cytotoxicity against human OVCAR8 cells assessed as cell growth at 0.1 uM after 48 hrs by sulforhodamine B assay relative to control; conditions: OVCAR-8, 48 h, read-out: Activity
RPMI-8226 [7] = test: Cytotoxicity against human RPMI8226 cells assessed as cell growth at 100 uM after 48 hrs by sulforhodamine B assay relative to control; conditions: RPMI-8226, 48 h, read-out: Activity
NCI/ADR-RES = test: Cytotoxicity against human NCI/ADR-RES cells assessed as growth inhibition after 48 hrs by sulforhodamine B assay
NCI-H522 [8] = test: Cytotoxicity against human NCI-H522 cells assessed as cell growth at 0.1 uM after 48 hrs by sulforhodamine B assay relative to control; conditions: NCI-H522, 48 h, read-out: Activity
OVCAR-8 [9] = test: Cytotoxicity against human OVCAR8 cells assessed as growth inhibition after 48 hrs by sulforhodamine B assay; conditions: OVCAR-8, 48 h
UO-31 [10] = test: Cytotoxicity against human UO31 cells assessed as cell growth at 100 uM after 48 hrs by sulforhodamine B assay relative to control; conditions: UO-31, 48 h, read-out: Activity
SR [11] = test: Cytotoxicity against human SR cells assessed as cell growth at 10 uM after 48 hrs by sulforhodamine B assay relative to control; conditions: read-out: Activity
SR [12] = test: Cytotoxicity against human SR cells assessed as cell growth at 0.1 uM after 48 hrs by sulforhodamine B assay relative to control; conditions: read-out: Activity
M14 = test: Cytotoxicity against human M14 cells assessed as cell growth at 100 uM after 48 hrs by sulforhodamine B assay relative to control; conditions: M14, 48 h, read-out: Activity
A549 [13] = test: Cytotoxicity against human A549/ATCC cells assessed as growth inhibition after 48 hrs by sulforhodamine B assay; conditions: A549, 48 h
HCC 2998 = test: Cytotoxicity against human HCC2998 cells assessed as cell growth at 10 uM after 48 hrs by sulforhodamine B assay relative to control; conditions: HCC 2998, 48 h, read-out: Activity
SN12C [14] = test: Cytotoxicity against human SN12C cells assessed as cell growth at 100 uM after 48 hrs by sulforhodamine B assay relative to control; conditions: read-out: Activity
MCF7 = test: Cytotoxicity against human MCF7 cells assessed as growth inhibition after 48 hrs by sulforhodamine B assay; conditions: MCF7, 48 h
SK-OV-3 = test: Cytotoxicity against human SKOV3 cells assessed as growth inhibition after 48 hrs by sulforhodamine B assay; conditions: SK-OV-3, 48 h
SK-MEL-5 = test: Cytotoxicity against human SK-MEL-5 cells assessed as cell growth at 1 uM after 48 hrs by sulforhodamine B assay relative to control; conditions: SK-MEL-5, 48 h, read-out: Activity
OVCAR-3 = test: Cytotoxicity against human OVCAR3 cells assessed as growth inhibition after 48 hrs by sulforhodamine B assay; conditions: OVCAR-3, 48 h
CCRF-CEM [15] = test: Cytotoxicity against human CCRF-CEM cells assessed as growth inhibition after 48 hrs by sulforhodamine B assay
RPMI-8226 [16] = test: Cytotoxicity against human RPMI8226 cells assessed as cell growth at 0.01 uM after 48 hrs by sulforhodamine B assay relative to control; conditions: RPMI-8226, 48 h, read-out: Activity
SN12C [17] = test: Cytotoxicity against human SN12C cells assessed as cell growth at 0.01 uM after 48 hrs by sulforhodamine B assay relative to control; conditions: read-out: Activity
SR [18] = test: Cytotoxicity against human SR cells assessed as cell growth at 1 uM after 48 hrs by sulforhodamine B assay relative to control; conditions: read-out: Activity
MOLT-4 = test: Cytotoxicity against human MOLT4 cells assessed as cell growth at 0.01 uM after 48 hrs by sulforhodamine B assay relative to control; conditions: MOLT-4, 48 h, read-out: Activity
RXF 393 = test: Cytotoxicity against human RXF393 cells assessed as growth inhibition after 48 hrs by sulforhodamine B assay; conditions: RXF 393, 48 h
MDA-MB-435 = test: Cytotoxicity against human MDA-MB-435 cells assessed as cell growth at 10 uM after 48 hrs by sulforhodamine B assay relative to control; conditions: MDA-MB-435, 48 h, read-out: Activity
MDA-MB-468 = test: Cytotoxicity against human MDA-MB-468 cells assessed as cell growth at 0.01 uM after 48 hrs by sulforhodamine B assay relative to control; conditions: MDA-MB-468, 48 h, read-out: Activity
CCRF-CEM [19] = test: Cytotoxicity against human CCRF-CEM cells assessed as cell growth at 100 uM after 48 hrs by sulforhodamine B assay relative to control; conditions: read-out: Activity
NCI-H522 [20] = test: Cytotoxicity against human NCI-H522 cells assessed as growth inhibition after 48 hrs by sulforhodamine B assay; conditions: NCI-H522, 48 h
SN12C [21] = test: Cytotoxicity against human SN12C cells assessed as cell growth at 10 uM after 48 hrs by sulforhodamine B assay relative to control; conditions: read-out: Activity
K562 = test: Cytotoxicity against human K562 cells assessed as cell growth at 10 uM after 48 hrs by sulforhodamine B assay relative to control; conditions: K562, 48 h, read-out: Activity

## COc1cc(C(=O)/C=C/c2cc(-c3cc(OC)c(OC)c(OC)c3)n[nH]2)cc(OC)c1OC
786-0
  LC50: 6.76 µM
  TGI: 3.25 µM
SN12C [1]
  growth at 1 µM: 78%
A549 [2]
  growth at 10 µM: 6%
HOP-62
  LC50: 5.74 µM
  TGI: 2.89 µM
A498
  LC50: 8.02 µM
  TGI: 3.59 µM
NCI-H322M [3]
  TGI: 4.85 µM
  CC50: 14.4 µM
T47D
  growth at 0.01 µM: 91%
UO-31 [4]
  growth at 10 µM: -95%
NCI-H322M [5]
  growth at 0.1 µM: 97%
OVCAR-8 [6]
  growth at 0.1 µM: 94%
RPMI-8226 [7]
  growth at 100 µM: -26%
NCI/ADR-RES
  LC50: > 100 µM
  TGI: 21.4 µM
NCI-H522 [8]
  growth at 0.1 µM: 103%
OVCAR-8 [9]
  LC50: 6.81 µM
  TGI: 3.28 µM
UO-31 [10]
  growth at 100 µM: -100%
SR [11]
  growth at 10 µM: 12%
SR [12]
  growth at 0.1 µM: 93%
M14
  growth at 100 µM: -88%
A549 [13]
  LC50 (concentration giving 50% net cell kill): 59.2 µM
  TGI: 12.1 µM
HCC 2998
  growth at 10 µM: -87%
SN12C [14]
  growth at 100 µM: -97%
MCF7
  LC50: 5.22 µM
  TGI: 2.07 µM
SK-OV-3
  LC50: 33.4 µM
  TGI: 11.1 µM
SK-MEL-5
  growth at 1 µM: 86%
OVCAR-3
  LC50: 5.79 µM
  TGI: 3.18 µM
CCRF-CEM [15]
  LC50 (concentration killing 50% of cells): > 100 µM
RPMI-8226 [16]
  growth at 0.01 µM: 97%
SN12C [17]
  growth at 0.01 µM: 96%
SR [18]
  growth at 1 µM: 22%
MOLT-4
  growth at 0.01 µM: 104%
RXF 393
  LC50 (concentration killing 50% of cells): 5.68 µM
  TGI: 2.67 µM
MDA-MB-435
  growth at 10 µM: -90%
MDA-MB-468
  growth at 0.01 µM: 90%
CCRF-CEM [19]
  growth at 100 µM: 2%
NCI-H522 [20]
  LC50: 4.22 µM
  TGI: 1.7 µM
SN12C [21]
  growth at 10 µM: -86%

## COc1cc(-c2cc(/C=C/C(=O)c3ccc(F)c(F)c3)[nH]n2)cc(OC)c1OC
786-0
  LC50: > 100 µM
  TGI: 15.7 µM
SN12C [1]
  growth at 1 µM: 89%
HOP-62
  LC50: > 100 µM
  TGI: > 100 µM
A498
  LC50: > 100 µM
  TGI: 7.13 µM
NCI-H322M [3]
  TGI: > 100 µM
  CC50: > 100 µM
T47D
  growth at 0.01 µM: 95%
UO-31 [4]
  growth at 10 µM: 3%
NCI-H322M [5]
  growth at 0.1 µM: 94%
K562
  growth at 10 µM: 2%
OVCAR-8 [6]
  growth at 0.1 µM: 96%
RPMI-8226 [7]
  growth at 100 µM: -36%
NCI/ADR-RES
  LC50: > 100 µM
  TGI: 50.5 µM
NCI-H522 [8]
  growth at 0.1 µM: 99%
OVCAR-8 [9]
  LC50: > 100 µM
  TGI: 17.3 µM
UO-31 [10]
  growth at 100 µM: -16%
SR [11]
  growth at 10 µM: 11%
SR [12]
  growth at 0.1 µM: 106%
M14
  growth at 100 µM: -38%
A549 [13]
  LC50 (concentration giving 50% net cell kill): > 100 µM
  TGI: 9.9 µM
HCC 2998
  growth at 10 µM: 13%
SN12C [14]
  growth at 100 µM: -22%
MCF7
  LC50: > 100 µM
  TGI: 12.3 µM
SK-OV-3
  LC50: > 100 µM
  TGI: 58.6 µM
SK-MEL-5
  growth at 1 µM: 90%
OVCAR-3
  LC50: 43.6 µM
  TGI: 6.25 µM
CCRF-CEM [15]
  LC50 (concentration killing 50% of cells): > 100 µM
  TGI: 47.2 µM
RPMI-8226 [16]
  growth at 0.01 µM: 94%
SN12C [17]
  growth at 0.01 µM: 95%
SR [18]
  growth at 1 µM: 84%
MOLT-4
  growth at 0.01 µM: 108%
RXF 393
  LC50 (concentration killing 50% of cells): 54.1 µM
  TGI: 6.34 µM
MDA-MB-435
  growth at 10 µM: 5%
MDA-MB-468
  growth at 0.01 µM: 90%
CCRF-CEM [19]
  growth at 100 µM: -4%
NCI-H522 [20]
  LC50: 65.2 µM
  TGI: 4.48 µM
SN12C [21]
  growth at 10 µM: 15%

## COc1ccc(C(=O)/C=C/c2cc(-c3ccc4c(c3)OCO4)n[nH]2)cc1OC
786-0
  LC50: 42.3 µM
  TGI: 11.4 µM
SN12C [1]
  growth at 1 µM: 91%
A549 [2]
  growth at 10 µM: 3%
HOP-62
  LC50: 25.8 µM
  TGI: 5.6 µM
A498
  LC50: 13.9 µM
  TGI: 4.23 µM
NCI-H322M [3]
  TGI: 7.3 µM
  CC50: 29.6 µM
T47D
  growth at 0.01 µM: 90%
NCI-H322M [5]
  growth at 0.1 µM: 88%
K562
  growth at 10 µM: 4%
OVCAR-8 [6]
  growth at 0.1 µM: 98%
RPMI-8226 [7]
  growth at 100 µM: -45%
NCI-H522 [8]
  growth at 0.1 µM: 87%
OVCAR-8 [9]
  LC50: 40.2 µM
  TGI: 5.82 µM
UO-31 [10]
  growth at 100 µM: -93%
SR [11]
  growth at 10 µM: -13%
SR [12]
  growth at 0.1 µM: 88%
M14
  growth at 100 µM: -77%
A549 [13]
  LC50 (concentration giving 50% net cell kill): > 100 µM
  TGI: 15.8 µM
HCC 2998
  growth at 10 µM: 27%
SN12C [14]
  growth at 100 µM: -73%
MCF7
  GI50: 3.27 µM
  LC50: > 100 µM
  TGI: 16.8 µM
SK-OV-3
  LC50: > 100 µM
  TGI: 26.4 µM
SK-MEL-5
  growth at 1 µM: 95%
OVCAR-3
  LC50: 14.3 µM
  TGI: 4.61 µM
CCRF-CEM [15]
  LC50 (concentration killing 50% of cells): > 100 µM
  TGI: 9.58 µM
RPMI-8226 [16]
  growth at 0.01 µM: 99%
SN12C [17]
  growth at 0.01 µM: 92%
SR [18]
  growth at 1 µM: 57%
MOLT-4
  growth at 0.01 µM: 97%
RXF 393
  LC50 (concentration killing 50% of cells): 15.9 µM
  TGI: 5.39 µM
MDA-MB-468
  growth at 0.01 µM: 92%
CCRF-CEM [19]
  growth at 100 µM: -13%
NCI-H522 [20]
  LC50: 12.7 µM
  TGI: 4.44 µM
SN12C [21]
  growth at 10 µM: 11%
